From patent US10144715B2, “Piperazine derivatives as liver X receptor modulators” (priority 2014, dated 2018)
Where two headings read alike, the source gives them in different places.

Assays:
LXR α LBD protein = LXR α LBD protein (Homo sapiens (Human), UniProt Q13133); assay: LXR α radioligand binding assay (SPA, competition with [3H]TO901317); settings: read-out: LXRα Binding Ki
LXR β LBD protein = LXR β LBD protein (Homo sapiens (Human), UniProt P55055); assay: biochemical; assay type: binding
Sequence of LXR β LBD protein (P55055 222-460 limits assumed): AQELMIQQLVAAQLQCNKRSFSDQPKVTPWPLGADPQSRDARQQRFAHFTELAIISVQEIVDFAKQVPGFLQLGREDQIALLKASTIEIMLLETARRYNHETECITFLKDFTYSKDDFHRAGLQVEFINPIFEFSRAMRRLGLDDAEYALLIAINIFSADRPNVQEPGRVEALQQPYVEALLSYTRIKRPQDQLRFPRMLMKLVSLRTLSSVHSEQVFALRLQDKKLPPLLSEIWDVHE

[1] = target: Gal4 DNA binding domain fused to the LBD of LXRα in HEK293 cells (Homo sapiens (Human), UniProt Q13133); assay: LXR luciferase transcriptional reporter gene assay, agonist mode, LXRα; assay type: cell-based; settings: for EC50: read-out: Cell LXRα EC50
Sequence of Gal4 DNA binding domain fused to the LBD of LXRα in HEK293 cells (Q13133 209-447): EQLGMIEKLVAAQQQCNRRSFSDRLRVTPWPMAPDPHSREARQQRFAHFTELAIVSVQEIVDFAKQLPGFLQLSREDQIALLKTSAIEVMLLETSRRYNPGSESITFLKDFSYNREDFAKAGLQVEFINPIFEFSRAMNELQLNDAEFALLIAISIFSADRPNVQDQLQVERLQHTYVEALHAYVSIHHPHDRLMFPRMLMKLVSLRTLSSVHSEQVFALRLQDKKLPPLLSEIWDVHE

[2] = target: Gal4 DNA binding domain fused to the LBD of LXRβ in HEK293 cells (Homo sapiens (Human), UniProt P55055); assay: cell-based; settings: for Cell LXRβ efficacy: agonist mode
Sequence of Gal4 DNA binding domain fused to the LBD of LXRβ in HEK293 cells (P55055 222-460 limits assumed): as the sequence (P55055 222-460 limits assumed) above

Sequence of LXR α LBD protein (Q13133 209-447): as the sequence (Q13133 209-447) above

## CC(C)[C@H]1CN(c2ccc(CO)c(S(C)(=O)=O)c2)CCN1c1ncc(C(C)(C)O)c(C(F)(F)F)n1 [10-5, (S)-2-(2-(4-(4-(hydroxymethyl)-3-(methylsulfonyl)phenyl)-2-isopropylpiperazin-1-yl)-4-(trifluoromethyl)pyrimidin-5-yl)propan-2-ol]
LXR α LBD protein
  Ki: 1280 nM
LXR β LBD protein; read-out: LXRβ Binding Ki
  Ki: 230 nM
[1]
  Cell LXRα efficacy: 3627 (67) %
[1]; agonist mode
  EC50: 3630 nM
[2]
  EC50: 980 nM
  Cell LXRβ efficacy: 980 (58) %

## CC(C)[C@@H]1CN(c2ccc(CO)c(S(C)(=O)=O)c2)CCN1c1ncc(C(C)(C)O)c(C(F)(F)F)n1 [10-7, (R)-2-(2-(4-(4-(hydroxymethyl)-3-(methylsulfonyl)phenyl)-2-isopropylpiperazin-1-yl)-4-(trifluoromethyl)pyrimidin-5-yl)propan-2-ol]
LXR α LBD protein
  Ki: 261 nM
LXR β LBD protein; read-out: LXRβ Binding Ki
  Ki: 18 nM
[1]
  Cell LXRα efficacy: 1520 (51) %
[1]; agonist mode
  EC50: 1520 nM
[2]
  EC50: 235 nM
  Cell LXRβ efficacy: 235 (40) %

## CC(C)[C@@H]1CN(c2ccc(F)c(S(C)(=O)=O)c2)CCN1c1nc(C(F)(F)F)c(C(C)(C)O)o1 [10-8, (R)-2-(2-(4-(4-fluoro-3-(methylsulfonyl)phenyl)-2-isopropylpiperazin-1-yl)-4-(trifluoromethyl)oxazol-5-yl)propan-2-ol]
LXR α LBD protein
  Ki: 2190 nM
LXR β LBD protein; read-out: LXRβ Binding Ki
  Ki: 132 nM
[1]
  Cell LXRα efficacy: 4655 (96) %
  EC50: 4660 nM
[2]
  EC50: 901 nM
  Cell LXRβ efficacy: 901 (76) %

## CC(C)(O)c1cc(CN2CCN(c3cccc(S(C)(=O)=O)c3)C[C@H]2c2ccccc2)ccc1C(F)(F)F [10-14, (R)-2-(5-((4-(3-(methylsulfonyl)phenyl)-2-phenylpiperazin-1-yl)methyl)-2-(trifluoromethyl)phenyl)propan-2-ol]
LXR α LBD protein
  Ki: 4560 nM
LXR β LBD protein; read-out: LXRβ Binding Ki
  Ki: 1480 nM
[1]; agonist mode
  EC50: > 20000 nM
[2]
  EC50: > 20000 nM

## CC(C)[C@@H]1CN(c2ccc(F)c(S(N)(=O)=O)c2)CCN1c1ncc(CO)c(C(F)(F)F)n1 [11-2, (R)-2-fluoro-5-(4-(5-(hydroxymethyl)-4-(trifluoromethyl)pyrimidin-2-yl)-3-isopropylpiperazin-1-yl)benzenesulfonamide]
LXR α LBD protein
  Ki: 357 nM
LXR β LBD protein; read-out: LXRβ Binding Ki
  Ki: 35 nM
[1]
  Cell LXRα efficacy: 1336 (57) %
  EC50: 1340 nM
[2]
  EC50: 243 nM
  Cell LXRβ efficacy: 243 (46) %

## CC(C)[C@@H]1CN(c2ccc(Cl)c(S(C)(=O)=O)c2)CCN1c1ncc(CO)c(C(F)(F)F)n1 [11-3, (R)-(2-(4-(4-chloro-3-(methylsulfonyl)phenyl)-2-isopropylpiperazin-1-yl)-4-(trifluoromethyl)pyrimidin-5-yl)methanol]
LXR α LBD protein
  Ki: 146 nM
LXR β LBD protein; read-out: LXRβ Binding Ki
  Ki: 6 nM
[1]
  Cell LXRα efficacy: 1014 (62) %
  EC50: 1010 nM
[2]
  EC50: 95 nM
  Cell LXRβ efficacy: 95 (44) %

## CS(=O)(=O)c1cc(N2CCN(c3ncc(CO)c(C(F)(F)F)n3)[C@H](c3ccc(F)cc3)C2)ccc1F [11-7, (R)-(2-(4-(4-fluoro-3-(methylsulfonyl)phenyl)-2-(4-fluorophenyl)piperazin-1-yl)-4-(trifluoromethyl)pyrimidin-5-yl)methanol]
LXR α LBD protein
  Ki: 1160 nM
LXR β LBD protein; read-out: LXRβ Binding Ki
  Ki: 85 nM
[1]
  Cell LXRα efficacy: 2240 (13) %
[1]; agonist mode
  EC50: 2240 nM
[2]
  EC50: 315 nM
  Cell LXRβ efficacy: 315 (14) %

## Cc1coc(-c2ccc(N3CCN(c4ncc(CO)c(C(F)(F)F)n4)[C@H](C(C)C)C3)cc2S(C)(=O)=O)n1 [11-8, (R)-(2-(2-isopropyl-4-(4-(4-methyloxazol-2-yl)-3-(methylsulfonyl)phenyl)piperazin-1-yl)-4-(trifluoromethyl)pyrimidin-5-yl)methanol]
LXR α LBD protein
  Ki: 1160 nM
LXR β LBD protein; read-out: LXRβ Binding Ki
  Ki: 133 nM
[1]
  Cell LXRα efficacy: 2934 (53) %
[1]; agonist mode
  EC50: 2930 nM
[2]
  EC50: 405 nM
  Cell LXRβ efficacy: 405 (53) %

## Cc1nnc(-c2ccc(N3CCN(c4ncc(CO)c(C(F)(F)F)n4)[C@H](C(C)C)C3)cc2S(C)(=O)=O)o1 [11-9, (R)-(2-(2-isopropyl-4-(4-(5-methyl-1,3,4-oxadiazol-2-yl)-3-(methylsulfonyl)phenyl)piperazin-1-yl)-4-(trifluoromethyl)pyrimidin-5-yl)methanol]
LXR α LBD protein
  Ki: 1970 nM
LXR β LBD protein; read-out: LXRβ Binding Ki
  Ki: 247 nM
[1]
  Cell LXRα efficacy: 3283 (31) %
  EC50: 3280 nM
[2]
  EC50: 603 nM
  Cell LXRβ efficacy: 603 (39) %

## Cc1noc(-c2ccc(N3CCN(c4ncc(CO)c(C(F)(F)F)n4)[C@H](C(C)C)C3)cc2S(C)(=O)=O)n1 [11-10, (R)-(2-(2-isopropyl-4-(4-(3-methyl-1,2,4-oxadiazol-5-yl)-3-(methylsulfonyl)phenyl)piperazin-1-yl)-4-(trifluoromethyl)pyrimidin-5-yl)methanol]
LXR α LBD protein
  Ki: > 3330 nM
LXR β LBD protein; read-out: LXRβ Binding Ki
  Ki: 773 nM
[1]
  Cell LXRα efficacy: 6291 (28) %
[1]; agonist mode
  EC50: 6290 nM
[2]
  EC50: 2250 nM
  Cell LXRβ efficacy: 2253 (36) %

## Cc1nc(N2CCN(c3ccc(F)c(S(C)(=O)=O)c3)C[C@H]2C(C)C)ncc1CO [11-14, (R)-(2-(4-(4-fluoro-3-(methylsulfonyl)phenyl)-2-isopropylpiperazin-1-yl)-4-methylpyrimidin-5-yl)methanol]
LXR α LBD protein
  Ki: > 3330 nM
LXR β LBD protein
  Ki: 515 nM
[1]
  EC50: > 20000 nM
[2]
  EC50: > 20000 nM

## CNS(=O)(=O)c1cc(N2CCN(c3ncc(C(C)O)c(C(F)(F)F)n3)[C@H](C(C)C)C2)ccc1F (stereo partly drawn) [12-8, 2-fluoro-5-((3R)-4-(5-(1-hydroxyethyl)-4-(trifluoromethyl)pyrimidin-2-yl)-3-isopropylpiperazin-1-yl)-N-methylbenzenesulfonamide]
LXR α LBD protein
  Ki: 126 nM
LXR β LBD protein; read-out: LXRβ Binding Ki
  Ki: 4 nM
[1]
  Cell LXRα efficacy: 503 (56) %
[1]; agonist mode
  EC50: 503 nM
[2]
  EC50: 59 nM
  Cell LXRβ efficacy: 59 (46) %

## CC(C)[C@@H]1CN(c2ccc(F)c(S(C)(=O)=O)c2)CCN1c1ncc(CN(C)CCCO)c(C(F)(F)F)n1 [15-9, (R)-3-(((2-(4-(4-fluoro-3-(methylsulfonyl)phenyl)-2-isopropylpiperazin-1-yl)-4-(trifluoromethyl)pyrimidin-5-yl)methyl)(methyl)amino)propan-1-ol]
LXR α LBD protein
  Ki: 2060 nM
LXR β LBD protein
  Ki: 146 nM
[1]
  Cell LXRα efficacy: 4170 (10) %
[1]; agonist mode
  EC50: 4170 nM
[2]
  EC50: > 20000 nM

## CNC(=O)c1cnc(N2CCN(c3ccc(F)c(S(C)(=O)=O)c3)C[C@H]2C(C)C)nc1C(F)(F)F [17-3, (R)-2-(4-(4-fluoro-3-(methylsulfonyl)phenyl)-2-isopropylpiperazin-1-yl)-N-methyl-4-(trifluoromethyl)pyrimidine-5-carboxamide]
LXR α LBD protein
  Ki: 2690 nM
LXR β LBD protein; read-out: LXRβ Binding Ki
  Ki: 188 nM
[1]
  Cell LXRα efficacy: 5514 (29) %
[1]; agonist mode
  EC50: 5510 nM
[2]
  EC50: 448 nM
  Cell LXRβ efficacy: 448 (18) %

## COCCNC(=O)c1cnc(N2CCN(c3ccc(F)c(S(C)(=O)=O)c3)C[C@H]2C(C)C)nc1C(F)(F)F [17-6, (R)-2-(4-(4-fluoro-3-(methylsulfonyl)phenyl)-2-isopropylpiperazin-1-yl)-N-(2-methoxyethyl)-4-(trifluoromethyl)pyrimidine-5-carboxamide]
LXR α LBD protein
  Ki: > 3330 nM
LXR β LBD protein; read-out: LXRβ Binding Ki
  Ki: 532 nM
[1]; agonist mode
  EC50: > 20000 nM
[2]
  EC50: > 20000 nM

## CC(C)[C@@H]1CN(c2ccc(F)c(S(C)(=O)=O)c2)CCN1c1ncc(C(=O)N(C)CCO)c(C(F)(F)F)n1 [17-7, (R)-2-(4-(4-fluoro-3-(methylsulfonyl)phenyl)-2-isopropylpiperazin-1-yl)-N-(2-hydroxyethyl)-N-methyl-4-(trifluoromethyl)pyrimidine-5-carboxamide]
LXR α LBD protein
  Ki: > 3330 nM
LXR β LBD protein
  Ki: 507 nM
[1]
  EC50: > 20000 nM
[2]
  EC50: > 20000 nM

## COC1CN(C(=O)c2cnc(N3CCN(c4ccc(F)c(S(C)(=O)=O)c4)C[C@H]3C(C)C)nc2C(F)(F)F)C1 [17-9, (R)-(2-(4-(4-fluoro-3-(methylsulfonyl)phenyl)-2-isopropylpiperazin-1-yl)-4-(trifluoromethyl)pyrimidin-5-yl)(3-methoxyazetidin-1-yl)methanone]
LXR α LBD protein
  Ki: > 3330 nM
LXR β LBD protein; read-out: LXRβ Binding Ki
  Ki: 410 nM
[1]
  EC50: > 20000 nM
[2]
  EC50: > 20000 nM

## COCCCN(C)C(=O)c1cnc(N2CCN(c3ccc(F)c(S(C)(=O)=O)c3)C[C@H]2C(C)C)nc1C(F)(F)F [17-13, (R)-2-(4-(4-fluoro-3-(methylsulfonyl)phenyl)-2-isopropylpiperazin-1-yl)-N-(3-methoxypropyl)-N-methyl-4-(trifluoromethyl)pyrimidine-5-carboxamide]
LXR α LBD protein
  Ki: 2880 nM
LXR β LBD protein; read-out: LXRβ Binding Ki
  Ki: 253 nM
[1]; agonist mode
  EC50: > 20000 nM
[2]
  EC50: > 20000 nM

## CCN(CCOC)C(=O)c1cnc(N2CCN(c3ccc(F)c(S(C)(=O)=O)c3)C[C@H]2C(C)C)nc1C(F)(F)F [17-14, (R)-N-ethyl-2-(4-(4-fluoro-3-(methylsulfonyl)phenyl)-2-isopropylpiperazin-1-yl)-N-(2-methoxyethyl)-4-(trifluoromethyl)pyrimidine-5-carboxamide]
LXR α LBD protein
  Ki: 915 nM
LXR β LBD protein; read-out: LXRβ Binding Ki
  Ki: 113 nM
[1]; agonist mode
  EC50: > 20000 nM
[2]
  EC50: > 20000 nM

## CCN(CCCO)C(=O)c1cnc(N2CCN(c3ccc(F)c(S(C)(=O)=O)c3)C[C@H]2C(C)C)nc1C(F)(F)F [17-15, (R)-N-ethyl-2-(4-(4-fluoro-3-(methylsulfonyl)phenyl)-2-isopropylpiperazin-1-yl)-N-(3-hydroxypropyl)-4-(trifluoromethyl)pyrimidine-5-carboxamide]
LXR α LBD protein
  Ki: > 3330 nM
LXR β LBD protein; read-out: LXRβ Binding Ki
  Ki: 360 nM
[1]
  EC50: > 20000 nM
[2]
  EC50: > 20000 nM

## COC(=O)NCCCN(C)C(=O)c1cnc(N2CCN(c3ccc(F)c(S(C)(=O)=O)c3)C[C@H]2C(C)C)nc1C(F)(F)F [17-19, methyl (R)-(3-(2-(4-(4-fluoro-3-(methylsulfonyl)phenyl)-2-isopropylpiperazin-1-yl)-N-methyl-4-(trifluoromethyl)pyrimidine-5-carboxamido)propyl)carbamate]
LXR α LBD protein
  Ki: > 3330 nM
LXR β LBD protein; read-out: LXRβ Binding Ki
  Ki: 584 nM
[1]; agonist mode
  EC50: > 20000 nM
[2]
  EC50: > 20000 nM
